Patent US12258360B2, “Compositions and methods for treatment of anticancer-drug resistant cancers” (THE GEORGE WASHINGTON UNIVERSITY, priority 2020, dated 2025)

Experiments:
IGROV1 cells = experiment: flow cytometry (FACS) of propidium-iodide stained IGROV1 cells; format: cell-based, human; conditions: 1 μM
And-1 polymerization = target: T1, And-1 polymerization (Homo sapiens, UniProt O75717); experiment: FLAG-And-1 / HA-And-1 co-immunoprecipitation in U2OS cells; format: cell-based
T1 construct: expressed in transfected cells; host or cells: U2OS
T1 sequence (O75717 1-1129): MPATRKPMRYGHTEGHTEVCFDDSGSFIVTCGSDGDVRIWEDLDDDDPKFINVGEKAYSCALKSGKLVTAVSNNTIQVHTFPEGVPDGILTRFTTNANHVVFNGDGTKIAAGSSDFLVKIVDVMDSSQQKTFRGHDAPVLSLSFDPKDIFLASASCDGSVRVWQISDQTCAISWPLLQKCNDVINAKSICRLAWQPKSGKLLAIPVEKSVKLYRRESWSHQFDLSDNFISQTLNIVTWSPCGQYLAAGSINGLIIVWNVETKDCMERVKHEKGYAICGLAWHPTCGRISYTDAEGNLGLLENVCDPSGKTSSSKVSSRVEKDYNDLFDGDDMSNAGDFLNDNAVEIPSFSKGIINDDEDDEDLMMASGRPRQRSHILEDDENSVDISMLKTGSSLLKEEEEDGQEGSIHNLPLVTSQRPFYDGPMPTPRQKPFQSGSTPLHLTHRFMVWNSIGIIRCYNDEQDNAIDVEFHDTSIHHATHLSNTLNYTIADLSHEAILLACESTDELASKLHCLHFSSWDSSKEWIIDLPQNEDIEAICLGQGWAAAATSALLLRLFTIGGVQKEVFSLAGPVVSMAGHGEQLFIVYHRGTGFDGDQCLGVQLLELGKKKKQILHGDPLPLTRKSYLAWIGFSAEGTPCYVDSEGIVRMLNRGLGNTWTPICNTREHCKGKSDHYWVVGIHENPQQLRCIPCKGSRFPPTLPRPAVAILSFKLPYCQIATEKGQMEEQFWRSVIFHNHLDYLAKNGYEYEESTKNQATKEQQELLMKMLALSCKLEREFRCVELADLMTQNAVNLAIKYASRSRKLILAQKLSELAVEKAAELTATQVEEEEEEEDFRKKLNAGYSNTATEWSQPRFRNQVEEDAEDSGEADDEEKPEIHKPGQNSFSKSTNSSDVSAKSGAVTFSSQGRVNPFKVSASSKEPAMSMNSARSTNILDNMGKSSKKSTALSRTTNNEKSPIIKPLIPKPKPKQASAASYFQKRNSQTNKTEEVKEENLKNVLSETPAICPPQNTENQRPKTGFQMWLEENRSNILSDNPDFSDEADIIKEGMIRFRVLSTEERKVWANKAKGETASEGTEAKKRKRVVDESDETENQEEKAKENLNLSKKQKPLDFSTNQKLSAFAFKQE
From the text: Human And-1 exists as a homotrimer mediated by the SepB domain. To determine whether the interaction of CH3 with the WD40 domain can disrupt And-1 polymerization, resulting in exposure of CUL4B binding site on And-1 to CUL4B, both FLAG-And-1 and HA-And-1 were transfected into U2OS cells and the protein-protein interaction was examined in the presence of CH3.

NCI 60 tumor cell lines = NCI 60 tumor cell lines growth assay; format: cell-based
Protocol: To test this hypothesis, inhibition of CH3 on cancer cells was evaluated by using NCI 60 tumor cell lines.

IGROV1 xenograft = format: in vivo, mice
Protocol: (§1) To evaluate the potency of And-1 inhibitors in vivo, IGROV1 or MCF7 cells were subcutaneously implanted into nude mice to form ovarian or breast tumors, respectively. In brief, 5-6 week-old female BALB/c athymic nude mice (CByJ.Cg-Foxn1nu/J, weighting 20-25 grams) were inoculated subcutaneously by injecting the OC cells, cisplatin resistant OC cells or breast cancer cells suspended in 100 μl ice-cold Matrigel/PBS (1:1, V:V; 5×10^6/mouse) into the dorsal flank of each mouse. When the average tumor volume reached 100-150 mm^3, the mice were randomized into subsequent experiment groups. For tumors treated with CH3 only, CH3 was given at 0 mg/kg, 20 mg/kg and 40 mg/kg via intraperitoneal injection twice a week for three weeks. […] The relative tumor volumes were calculated using the formula: a×(b^2)/2, for which a and b represented the longest and shortest diameters, respectively. During the drug treatment, the tumor volume and body weight were measured. Tumor samples were collected 4 days after final administration of the drug.

MCF7 xenograft = format: in vivo, mice
Protocol: as §1

IGROV1 CR cells = experiment: clonogenic assay, combination with cisplatin; format: cell-based, human
Protocol: Clonogenic survival assays were also performed. In brief, cells were seeded in 6-well dishes at a density of 500 cells per dish then treated with the cisplatin at the indicated concentrations (See FIGS. 23 and 24). Cells were then kept in the incubator for 10-14 days to allow colony formation. Colonies were visualized by crystal violet staining. Colonies with >50 cells were counted.

IGROV1 CR xenograft = format: in vivo, mice
Protocol: as §1
To assess the efficacy of combination therapy with And-1 inhibitor and cisplatin in vivo, an IGROV1 CR xenograft was treated with vehicle, And-1 inhibitors, cisplatin or combination of cisplatin and And-1 inhibitor via intraperitoneal injection.

And-1 = target: T2, And-1 (Homo sapiens, UniProt O75717); experiment: immunoblot analysis of And-1 expression in IGROV1 cells; format: cell-based; design: endogenous in cells; host or cells: IGROV1 CR
T2 sequence (O75717 1-1129): T1 sequence (O75717 1-1129)
Protocol: The high IC50 of resveratrol compromises its potential clinical application; therefore, resveratrol was used as a lead compound to screen 12 analogs of resveratrol for potent compounds that can inhibit And-1 (FIG. 14). […] To perform immunoblot analyses, cells were first treated with increasing concentrations of the 12 analogs. After treatment, the cells were harvested and then lysed with RIPA buffer protease inhibitor and phosphatase inhibitor cocktail. Protein concentration was determined by the BCA protein assay. Equal amounts of whole cell lysates were separated on sodium dodecyl sulfate polyacrylamide gel electrophoresis (SDS-PAGE) and transferred onto nitrocellulose membranes. Membranes were then incubated in blocking solution (5% non-fat milk in 20 mM TRIS-HCl, 150 mM NaCl, 0.1% Tween-20) (TBST), followed by incubation with the indicated antibodies at 4° C. overnight. The membranes were then washed in TBST and incubated with HRP-conjugated secondary antibodies for 1 hour at room temperature (21° C.±2° C.). Antibody detection was performed with an enhanced chemiluminescence reaction.

OB1OCc2cc(/C=C/c3ccc(Cl)c(Cl)c3)ccc21 [CH3]
percentage of cells in the S-phase (IGROV1 cells): reduced the percentage of cells in the S-phase | interaction between HA-And-1 and FLAG-And-1 (And-1 polymerization): significantly decreased | cancer cell growth inhibition (NCI 60 tumor cell lines; 0.01-100 μM, 60 tumor cell lines): inhibited cancer cell growth in all 60 tumor cell lines in a dose dependent manner | mean growth percentage (NCI 60 tumor cell lines; one dose assay, 10 μM, against 60 tumor cell lines): 1.84% | And-1 expression in tumor (IHC) (IGROV1 xenograft; IGROV1 xenograft): inhibited And-1 expression | apoptosis in tumor (cleaved caspase-3 IHC) (IGROV1 xenograft; IGROV1 xenograft): induced apoptosis in tumor | tumor growth (IGROV1 xenograft; IGROV1 xenograft, 20 or 40 mg/kg intraperitoneally, three weeks): significantly reduced tumor growth | systemic toxicity (body weight, H&E staining of heart, liver, kidney and lung) (IGROV1 xenograft; mouse, in vivo): systemic toxicity or obvious side effects were not observed | And-1 expression in tumor (IHC) (MCF7 xenograft; MCF7 xenograft): inhibited And-1 expression | apoptosis in tumor (cleaved caspase-3 IHC) (MCF7 xenograft; MCF7 xenograft): induced apoptosis in tumor | tumor growth (MCF7 xenograft; MCF7 xenograft, 20 or 40 mg/kg intraperitoneally, three weeks): significantly reduced tumor growth | systemic toxicity (body weight, H&E staining of heart, liver, kidney and lung) (MCF7 xenograft; mouse, in vivo): systemic toxicity or obvious side effects were not observed | synergy with cisplatin on clonogenic capacity (IGROV1 CR cells): synergy with cisplatin to reduce clonogenic capacity | And-1 expression in tumor samples (IHC) (IGROV1 CR xenograft; IGROV1 CR xenograft): suppressed expression of And-1 | tumor growth, combination with cisplatin vs cisplatin alone (IGROV1 CR xenograft; IGROV1 CR xenograft, cisplatin 8 mg/kg, CH3 20 mg/kg, BZA 2 mg/kg intraperitoneally, three weeks): excellent synergy in reducing tumor growth | systemic toxicity of combination with cisplatin (body weight, H&E staining) (IGROV1 CR xenograft; mouse, in vivo): no obvious systemic toxicity or side effect | And-1 protein levels (And-1; 5 μM for 48 hours, without MG132): reduced And-1 protein levels | IC50 (And-1; immunoblot, read-out: IC50 for inhibition of And-1 expression): 2080 nM
